Activity calls are given as the source filed them. The rule behind the calls is not given here.

One may read the IC50 as the concentration needed to halve the response being measured. The EC50 is the concentration needed to bring the measured effect to its halfway point. Higher therefore signals a need for much substance.

In assay [1] the test system is human cells, Her2 expression AlphaScreen; CTG viability. The experiment in a line: inhibitors of Her2 kinase expression, dose response, cell-based, AlphaScreen, CellTiter-Glo viability (AID 742). As to conditions: for EC50: viability, CellTiter-Glo. (In general: Bead proximity is the source of the signal in Alpha formats.)
Assay in assay [2]: as above
The following applies: human cells, Her2 expression AlphaScreen; CTG viability; at 9.62 µM (top of the series).

On to `CCN1/C(=C/C(=O)c2ccco2)Sc2ccccc21`, for which, in assay [1], the IC50 was 3.63 µM and the EC50 is above 9.62 µM.
For the compound `CC(C)OCCCNC(=O)c1c(N)n(Cc2cccs2)c2nc3ccccc3nc12`, the Her2 inhibition in assay [2] is -14.5% (inactive). Also, in assay [1], the EC50 is above 9.62 µM.
For `Cc1c(-c2cccs2)[n+](=O)c2c(n1[O-])CCCC2`, in that order: -49% (inactive) and above 9.62 µM.
On to `Cc1nc(NC(=O)c2ccco2)sc1C(=O)Nc1ccc(Br)cc1`, for which, in assay [1], the IC50 is 1.49 µM and the EC50 was above 9.62 µM.
`CS(=O)(=O)c1nc(-c2ccco2)cc(C(F)(F)F)n1`: in assay [1], the IC50 was 9.15 µM and the EC50 was above 9.62 µM.
In the case of `C=C(C)COc1ccc(-c2n[nH]c(C)c2-c2ccccc2OC)c(O)c1`, in assay [2], the Her2 inhibition is 4.56% (inactive). The EC50 in assay [1] was above 9.62 µM.
For `O=C(CN1CCC(c2nc3ccccc3s2)CC1)NCc1cccs1`, in that order: -41.9% (inactive) and above 9.62 µM.
In the case of `Cc1cc(NC(=O)CNC(=O)C2CCCCC2)no1`, the Her2 inhibition in assay [2] is 12.1% (inactive). Moreover, the EC50 in assay [1] is above 9.62 µM.
Take `Cc1cc(-c2nnc3n2N=C(c2ccc(-c4ccccc4)cc2)CS3)n[nH]1`: the Her2 inhibition in assay [2] is -21.4% (inactive). In addition, in assay [1], the EC50 was above 9.62 µM.
The like results for `O=C(c1n[nH]c(=O)c2ccccc12)N1CCN(c2ccccc2)CC1` were, in that order, -18.2% (inactive) and above 9.62 µM.
The like results for `N=c1c2c(-c3ccccc3)c(-c3ccccc3)n(Cc3ccco3)c2ncn1Cc1ccco1` were, in that order, -27.8% (inactive) and above 9.62 µM.
Consider `C=CCn1c(=O)c2ccccc2n2c(SCc3cc(=O)n4ccsc4n3)nnc12`, for which the Her2 inhibition in assay [2] was -18.6% (inactive). In assay [1], the EC50 is above 9.62 µM.
As for `Cc1[nH]nc2c1C(C1CC=CCC1)C(C#N)=C(N)O2` (stereo not given), in assay [2], the Her2 inhibition was -29.3% (inactive). In assay [1], this compound returned an EC50 above 9.62 µM.
Consider `COCCCN1C(=O)C(O)=C(C(C)=O)C1c1cccc(F)c1` (stereo not given), for which the Her2 inhibition in assay [2] is -2.16% (inactive). The compound further gave an EC50 in assay [1] above 9.62 µM.
On to `CN(C)CC(C(=O)c1ccccc1)c1ccccc1` (stereo not given), for which, in assay [1], the IC50 was 8.84 µM and the EC50 is above 9.62 µM.
For `CCn1nc(-c2ccccc2)nc2c(=O)n(C)c(=O)nc1-2`, in that order: 4.48 µM (inactive) and below 0.024 µM.
For `COC(=O)/C(=C1/Oc2cc(C)oc(=O)c2S1)C(F)(F)F`, in that order: 3.78 µM (inactive) and below 0.024 µM.
For `O=S1(=O)C=C(Sc2nc3cc(Cl)ccc3o2)c2ccccc21`, in that order: 9.25 µM and above 9.62 µM.
Turning to `Cc1nc2nc(-c3ccco3)nn2c(C)c1Cl`, in assay [1], the IC50 is 2.6 µM and the EC50 is above 9.62 µM.
Regarding `Cc1ccc(-c2csc3ncnc(Sc4nnc(CN5CCCCCC5=O)o4)c23)cc1`, in assay [1], the IC50 was 4.53 µM and the EC50 is above 9.62 µM.
For `CS(=O)(=O)c1nc(-c2ccccc2)cc(C(F)(F)F)n1`, in that order: 9.06 µM and above 9.62 µM.
The like results for `CCCCS(=O)(=O)/C=C\C=C/S(=O)(=O)CCCC` were, in that order, 4.07 µM and above 9.62 µM.
For `CSC1=N/C(=C\C=C\c2cccs2)C(=O)S1`, in that order: 8.09 µM and above 9.62 µM.
In the case of `O=S(=O)(CC(CN1CCCC1)N1CCCC1)c1ccc2ccccc2c1` (stereo not given), in assay [1], the IC50 was 7.29 µM and the EC50 is above 9.62 µM.
For `CCCn1c(NC(=O)c2ccco2)nc2ccccc21`, in that order: 2.13 µM and above 9.62 µM.
The like results for `COC(=O)c1sccc1NC(=O)c1ccc(Cl)s1` were, in that order, 9 µM and above 9.62 µM.
For `Nc1nnnn1/N=C/C(Br)=C/c1ccccc1`, in that order: 3.58 µM and above 9.62 µM.
For the compound `CS(=O)(=O)c1nc(-c2cccs2)cc(C(F)(F)F)n1`, in assay [1], the IC50 was 7.37 µM and the EC50 was above 9.62 µM.
Consider `Cn1ncnc2c(=O)n(C)c(=O)nc1-2`, for which, in assay [1], the IC50 is 2.24 µM (inactive) and the EC50 is below 0.024 µM.
The like results for `Cc1nn2c(-c3ccco3)nnc2c2ccccc12` were, in that order, 2.38 µM and above 9.62 µM.
The like results for `O=S1(=O)C=C(Sc2nnc(-c3ccccc3)o2)c2ccccc21` were, in that order, 7.54 µM and above 9.62 µM.
For `CC(=O)c1sc2nc(-c3cccs3)cc(C(F)(F)F)c2c1N`, in that order: 9.32 µM and above 9.62 µM.
In the case of `COc1ccc(C(=O)C(CN2CCCC2)c2ccccc2)cc1` (stereo not given), in assay [1], the IC50 was 8.95 µM and the EC50 is above 9.62 µM.
The like results for `CCn1nc(-c2cccs2)nc2c(=O)n(C)c(=O)nc1-2` were, in that order, 2.55 µM (inactive) and below 0.024 µM.
For `O=S(=O)(C/C(=C/CO)S(=O)(=O)c1ccccc1)c1ccccc1`, in that order: 5.12 µM and above 9.62 µM.
